Where two headings read alike, the source gives them in different places.
Tests used:
[1] = test system: zebrafish embryos and larvae; settings: for Maximum-tolerated concentration (MTC): highest concentration with no phenotypic abnormalities, followed to 9 dpf; for Phenotypic effects above MTC after 24 hours (average penetrance at least 50%): at the concentration in parentheses; for MTC / tolerated concentration: over all or most developmental stages analyzed, 24-hour exposure
Procedure: Zebrafish embryos of the AB wild-type strain (originally obtained from the Zebrafish International Resource Center, Eugene, Oregon, USA) were raised at 28°C. Zebrafish husbandry, embryo collection, and embryo and larva maintenance were performed as described, [21]. Toxicity assays were standardly performed in 24-well microtiter plates (wrapped with Parafilm to limit solvent evaporation) using 10 embryos per well in 1 ml of 0.3× Danieau's medium (17 mM NaCl, 2 mM KCl, 0.12 mM MgSO4, 1.8 mM Ca(NO3)2 and 1.5 mM HEPES, pH 7.6). Each experiment was repeated 3 times for a total of 30 embryos or larvae analyzed per solvent per developmental staged tested. Data were only recorded for experiments in which the percentage of normal embryos or larvae in the control group was at least 90%. […] In determining the maximum tolerated concentration (MTC) for each solvent and carrier, all post-exposure embryos and larvae were allowed to develop in larva medium to 9 dpf, so as to detect any deleterious effects appearing after this 24-hour window. Solvents and carriers were obtained from the following suppliers: acetone (Chemlab, Zedelgem, Belgium), acetonitrile (Acros Organics, Geel, Belgium), albumin (BSA, Sigma-Aldrich, Bornem, Belgium), butanone (Riedel-de Haën, Seelze, Germany), cyclodextrin (2- hydroxypropyl-beta-cyclodextrin, Sigma-Aldrich), dimethyl formamide (Acros), DMSO (Agros), ethanol (Fisher Scientific, Doornik, Belgium), glycerol (Acros), isopropanol (Chemlab), methanol (Chemlab), polyethylene glycol-400 (Fluka, Bornem, Belgium), propylene glycol (Certa, Eigenbrakel, Belgium), solketal (Merck, Overijse, Belgium). Statistical analyses were done using chi-square in Microsoft Excel.
Twelve solvents and 2 carriers – chosen based solely on their potential utility for the solubilization and delivery of a structurally diverse range of small molecules – were analyzed for their effects on zebrafish embryos and larvae. The solvents included acetone, acetonitrile, butanone, dimethyl formamide, DMSO, ethanol, glycerol, isopropanol, methanol, polyethylene glycol (PEG-400), propylene glycol, and solketal, and the carriers included albumin (BSA) and cyclodextrin (2-hydroxypropyl-beta-cyclodextrin, or HPBCD). […] For this initial study, the effects of a 24-hour exposure to each solvent and carrier was analyzed using embryos and larvae at the following developmental stages: 2–4 cell, 4 hours-post fertilization (hpf), and 1, 2, 3, 4, and 7 days post-fertilization (dpf).

[2] = test system: rat embryos; settings: cited from earlier work
[3] = test system: zebrafish embryos; parameters: method as in PMID 16125774; settings: 2% DMSO; cited from earlier work
[4] = test system: zebrafish; parameters: method as in PMID 18646521; settings: 0.01% acetone; cited from earlier work
[5] = test system: early embryos; parameters: method as in PMID 18031801; settings: solutions containing between 5 and 10% of this solvent; cited from earlier work
[6] = exposure for 24 hours beginning at 1 dpf
[7] = exposure for 24 hours beginning at 2–4 cell stage
[8] = exposure for 24 hours beginning at 3 dpf
[9] = exposure for 24 hours beginning at 2 dpf
[10] = exposure for 24 hours beginning at 4 dpf
[11] = exposure for 24 hours beginning at 4 hpf
[12] = exposure for 24 hours beginning at 5 dpf
[13] = exposure for 24 hours beginning at 7 dpf

| SMILES | Lowest concentration at which an average penetrance of at least 50% was observed for the phenotypic effects ([1]; 24 hours exposure from 1 dpf) | Lowest concentration at which an average penetrance of at least 50% was observed for the phenotypic effects ([1]; 24 hours exposure from 2 dpf) | Lowest concentration at which an average penetrance of at least 50% was observed for the phenotypic effects ([1]; 24 hours exposure from 3 dpf) | Lowest concentration at which an average penetrance of at least 50% was observed for the phenotypic effects ([1]; 24 hours exposure from 4 hpf) | Lowest concentration at which an average penetrance of at least 50% was observed for the phenotypic effects ([1]; 24 hours exposure from 5 dpf) | Lowest concentration at which an average penetrance of at least 50% was observed for the phenotypic effects ([1]; 24 hours exposure from 7 dpf) | Maximum-tolerated concentration (MTC) [1, 6] | Maximum-tolerated concentration (MTC) [1, 7] | Maximum-tolerated concentration (MTC) [1, 8] | Phenotypic effects above MTC after 24 hours (average penetrance at least 50%) ([1]; exposure from 3 dpf) | Phenotypic effects above MTC after 24 hours (average penetrance at least 50%) ([1]; exposure from 5 dpf) | Phenotypic effects above MTC after 24 hours (average penetrance at least 50%) ([1]; exposure from 7 dpf) | Maximum-tolerated concentration (MTC) [1, 9] | Maximum-tolerated concentration (MTC) [1, 10] | Maximum-tolerated concentration (MTC) [1, 11] | Maximum-tolerated concentration (MTC) [1, 12] | Maximum-tolerated concentration (MTC) [1, 13] | MTC / tolerated concentration [1] | further results |
| --- | --- | --- | --- | --- | --- | --- | --- | --- | --- | --- | --- | --- | --- | --- | --- | --- | --- | --- | --- |
| CC#N [Acetonitrile, acetonitrile] | 2.5% | 1.5% | 1.5% | 1.5% | 1% | 0.5% | 1% | <0.5% | 1% | PE SB | IC PE | IC PE |  |  |  |  |  |  | Effect on cleavage-stage embryos ([1]; 0.5% (lowest concentration examined), after 24 hours of exposure): completely lethal; Lowest concentration at which an average penetrance of at least 50% was observed for the phenotypic effects ([1]; 24 hours exposure from 4 dpf): 1.5%; Phenotypic effects above MTC after 24 hours (average penetrance at least 50%) ([1]; exposure from 1 dpf): DD PE; Phenotypic effects above MTC after 24 hours (average penetrance at least 50%) ([1]; exposure from 4 dpf): IC PE; Phenotypic effects above MTC after 24 hours (average penetrance at least 50%) ([1]; exposure from 4 hpf): AP IC IP NO SO; Minimum embryotoxic concentration [2]: 40 mM |
| C[S+](C)[O-] [Dimethyl sulfoxide (DMSO), Dimethyl sulfoxide] |  |  | 2.5% |  | 2.5% | 2% | 2% | >2.5% | 1.5% | NB SB | GG IC IM LP | NB LP | 2% | 2% | >2.5% | 2% | 1.5% |  | MTC / tolerated concentration as summarised in the text for a subset of stages ([1]; BSA: intermediate stages, DMSO: embryos, glycerol: younger larvae and embryos): at least 2.5%; Levels at which abnormalities or lethality begin in at least a subset of treated animals ([1]; larvae): 2–2.5%; Adverse effects at maximum concentration tested [3]: no adverse effects |
| CC(C)=O [Acetone, acetone] |  |  |  |  |  | 0.5% | 1.5% | 2% | ≥2.5% |  |  |  | 1.5% | 1.5% | 2% | <0.5% | <0.5% |  | Maximum-tolerated concentration (MTC) ([1]; exposure for 24 hours beginning at 3 dpf, listed as acetone): ≥ 2.5%; Toxicity of negative controls with solvent [4]: no signs of toxicity |
| CC(O)CO (centres unmarked) [Propylene glycol] |  |  |  |  |  |  | >2.5% | >2.5% | 2% |  |  |  | >2.5% | 1.5% | >2.5% | >2.5% | 1.5% | at least 2.5% | Toxicity of brief exposures to cryoprotectant solutions [5]: toxic |
| CC(O)COC[C@H]1O[C@@H]2O[C@H]3[C@H](O)[C@@H](O)[C@@H](O[C@H]4[C@H](O)[C@@H](O)[C@@H](O[C@H]5[C@H](O)[C@@H](O)[C@@H](O[C@H]6[C@H](O)[C@@H](O)[C@@H](O[C@H]7[C@H](O)[C@@H](O)[C@@H](O[C@H]8[C@H](O)[C@@H](O)[C@@H](O[C@H]1[C@H](O)[C@H]2O)O[C@@H]8COCC(C)O)O[C@@H]7COCC(C)O)O[C@@H]6COCC(C)O)O[C@@H]5COCC(C)O)O[C@@H]4COCC(C)O)O[C@@H]3COCC(C)O (stereo partly drawn) [Cyclodextrin (HPBCD), 2-hydroxypropyl-beta-cyclodextrin] |  |  |  |  |  |  | 1% | 1% | 1.5% |  |  |  | 1.5% | 1% | 0.5% | 1.5% | 1% | 1% |  |
| OCC(O)CO [Glycerol] | 2% | 2% | 2% | 2% |  |  | 1.5% | 1.5% | 1.5% |  |  |  | 1.5% | 2% | 1.5% | >2.5% | >2.5% |  | Lowest concentration at which an average penetrance of at least 50% was observed for the phenotypic effects ([1]; 24 hours exposure from 2–4 cell stage): 2.5%; Maximum-tolerated concentration (MTC) ([1]; exposure for 24 hours beginning at 5 dpf, listed as glycerol): ≥ 2.5%; Maximum-tolerated concentration (MTC) ([1]; exposure for 24 hours beginning at 7 dpf, listed as glycerol): ≥ 2.5% |
